Activity calls are given as the source filed them.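 The calls were made as follows: active = fitted half-maximal concentration for changing reporter fluorescence at or below a set limit; inactive = the rest.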
The compounds below were run against Citrate synthase, peroxisomal (Saccharomyces cerevisiae (strain ATCC 204508 / S288c)) (UniProt P08679) (assay: yeast TOR pathway CIT2-GFP reporter potency – flow cytometry, MLPCN hits, dose response (AID 2744)). Details: S. cerevisiae CIT2-GFP strain, 3 h, at 33 µM (top of the series).
Chain of Citrate synthase, peroxisomal (Saccharomyces cerevisiae (strain ATCC 204508 / S288c)) (P08679 whole entry, looked up): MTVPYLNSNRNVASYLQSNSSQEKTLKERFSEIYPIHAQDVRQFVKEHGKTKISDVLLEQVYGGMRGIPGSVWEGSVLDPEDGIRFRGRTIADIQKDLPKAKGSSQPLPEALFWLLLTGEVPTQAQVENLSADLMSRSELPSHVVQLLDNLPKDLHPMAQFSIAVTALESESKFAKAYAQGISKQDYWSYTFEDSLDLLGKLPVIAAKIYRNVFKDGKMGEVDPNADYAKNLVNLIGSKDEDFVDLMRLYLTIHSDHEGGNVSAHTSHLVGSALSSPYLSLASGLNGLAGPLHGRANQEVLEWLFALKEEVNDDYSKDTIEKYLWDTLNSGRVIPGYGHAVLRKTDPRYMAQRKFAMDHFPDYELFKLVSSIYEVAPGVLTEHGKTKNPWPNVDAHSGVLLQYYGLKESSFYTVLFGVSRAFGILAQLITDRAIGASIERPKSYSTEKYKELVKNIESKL

SMILES	GFP fluorescence, higher = induction
O=C(Oc1c(Cl)cc(Cl)c2cccnc12)c1cccc([N+](=O)[O-])c1	inactive
CCOC(=O)CSC1=NC(=O)/C(=C/c2ccc(OC)cc2)S1	inactive
O=C1c2ccccc2C(=O)C2OC12 (centres undefined)	inactive
COc1ccccc1NC1=C(Cl)C(=O)N(c2ccccc2)C1=O	inactive
O=C(Nc1nnc(-c2ccc(F)cc2)o1)c1cc(Cl)sc1Cl	inactive
Cc1ccc2nc(/C(C#N)=C/c3ccc(O)c(O)c3)[nH]c2c1	inactive
COc1cc(SSc2cc(OC)cc([N+](=O)[O-])c2N)c(N)c([N+](=O)[O-])c1	inactive
COc1cc(N=c2ssnc2Cl)cc(OC)c1	inactive
COc1cc(C=C2C(=O)c3ccccc3C2=O)cc(OC)c1OC	inactive
Cc1cc(/C=C2/SC(=S)N(c3cccc(Cl)c3)C2=O)c(C)n1-c1cccnc1	inactive
CCCCc1ccc(/C=C2/C(=O)ON=C2c2ccccc2)s1	inactive
O=C1C(Cl)=C(NCCc2ccccc2)C(=O)N1CCc1ccccc1	inactive
O/C=c1\ccc2cccc3nc(C(F)(F)F)nc1c23	inactive
O=[N+]([O-])c1ccc(O)c(/C=N/Nc2ccccn2)c1	inactive
CCCc1ccc(OCC(=O)NNC(=S)NC(=O)c2ccco2)cc1	inactive
CS(=O)(=O)c1nc(-c2cccs2)cc(C(F)(F)F)n1	inactive
CC1=NNC(=O)/C1=C\c1cn(-c2ccccc2)nc1-c1ccccc1	inactive
Cc1ccc(-c2nc(C)sc2CC(=O)Nc2nnc(C)s2)cc1	inactive
Cc1ccc(N/N=C(\C#N)C(N)=S)c(C)c1	inactive
COc1ccccc1N=Nc1ccc(O)c2ncccc12	inactive
CC(C)(C)C(=O)NC(=S)NNC(=O)c1ccc(-c2ccccc2)cc1	inactive
CCOC(=O)CS(=O)(=O)c1nc(-c2ccccc2)cc(C(F)(F)F)n1	inactive
COc1cc(/C=C2\CC/C(=C\c3cc(OC)c(O)c(OC)c3)C2=O)cc(OC)c1O	inactive

SMILES	GFP fluorescence, higher = induction
O=c1c(-c2ccc(Cl)cc2)[n+]([O-])c2ccccc2n1O	inactive
O=C(/C=C/c1cc(Br)ccc1O)c1ccco1	inactive
COc1ccc(NC2=C(Cl)C(=O)N(CCc3ccccc3)C2=O)c(OC)c1	inactive
CCc1ccc(OCC(=O)NNC(=S)NC(=O)C2CC2)c(Br)c1	inactive
Nc1ccc(Br)c2c1C(=O)c1ccccc1C2=O	inactive
Cc1ccccc1[C@@]1(C)ON(c2ccccc2C(F)(F)F)C1=O	inactive
CC(=O)c1ccc(N2CCN(C(=O)c3ccc(Br)cc3)CC2)c(F)c1	inactive
O=c1cc(-c2ccccc2)cc(-c2ccccc2)n1O	inactive
Cc1ccc(N=c2ssnc2Cl)cc1	inactive
Cn1ncc(S(=O)(=O)Cc2ccccc2)c(Cl)c1=O	inactive
O=[N+]([O-])c1cc(CN2CCN(c3ccccc3)CC2)c(O)c2ncccc12	inactive
O=C(OCn1ncc(Br)c(Br)c1=O)c1ccc(F)cc1	inactive
Cc1ccc(S(=O)(=O)ON2C(=O)c3ccccc3C2=O)c(C)c1	inactive
CCOC(=O)c1c(C)oc2c1c(C(c1cccnc1)N1CCOCC1)c(O)c1ccccc12 (centres undefined)	inactive
COc1ccc([N+](=O)[O-])c(S(=O)(=O)c2ccc(Cl)cc2)n1	inactive
Cc1[nH][nH]c(=O)c1C(c1ccc(-c2ccc(Cl)cc2)o1)c1c(C)[nH][nH]c1=O	inactive
CCc1nc2ccccc2c(=O)n1NC(=O)c1c(O)c2cccc3c2n(c1=O)CCC3	inactive
COC(=O)CCS(=O)(=O)c1nc(-c2ccccc2)cc(C(F)(F)F)n1	inactive
O=C1c2sc3nc4ccccc4n3c2C(=O)N1c1ccccc1Cl	inactive
CCCCS(=O)(=O)/C=C\C=C/S(=O)(=O)CCCC	inactive
O=[N+]([O-])c1ccc(O)c2ncccc12	inactive
COc1cc(/C=C2\C(=O)ON=C2c2ccccc2)cc(Br)c1O	inactive
CN(C)c1ccc(N=Cc2nc(-c3ccccc3)oc2OC(=O)c2ccccc2)cc1	inactive

SMILES	GFP fluorescence, higher = induction
CCN(CC(=O)Nc1cc(S(=O)(=O)N2CCOCC2)ccc1Cl)Cc1ccccc1	inactive
Oc1c(I)cc(Cl)c2cccnc12	inactive
Cc1ccccc1OCCOC(=O)c1ccc(S(=O)(=O)N2CCCC2)cc1	inactive
CCCCCCCCC/C(=N\O)c1ccccn1	inactive
Cc1cccc(C(=O)NC(=S)NNC(=O)Cc2ccccc2)c1	inactive
CCn1c(=O)c(C(=O)Nc2nc3ccccc3[nH]2)c(O)c2ccccc21	inactive
COC(=O)c1cc(N2C(=O)C3C(C2=O)C2(C)C=CC3(C)O2)ccc1Cl (centres undefined)	inactive
COc1ccc(OC)c(S(=O)(=O)ON2C(=O)c3ccccc3C2=O)c1	inactive
O=C1C=C(Nc2ccc(Cl)cc2)C(=O)N1c1ccc(Cl)cc1	inactive
O=C(OCn1ncc(Br)c(Br)c1=O)c1c(F)cccc1F	inactive
Clc1ccc(N=c2ssnc2Cl)cc1	inactive
Oc1ccc(COCc2ccccc2)c2cccnc12	inactive
O=C(O)c1cc[c]([Hg][Cl])cc1	inactive
COc1ccc(C(=O)NC(=S)NNC(=O)CCc2ccccc2)cc1	inactive
Cc1ccc(C(CC(=O)O)NC(=O)c2ccc(S(=O)(=O)N3CC(C)OC(C)C3)cc2)cc1 (centres undefined)	inactive
O=C(/C=C/c1ccc(F)cc1)NC(=S)NNC(=O)c1cnccn1	inactive
CNC(CC(=O)c1ccc([N+](=O)[O-])cc1)C(Cl)(Cl)Cl (centres undefined)	inactive
O=C1NC(=O)N(Cc2ccco2)C(=O)/C1=C/c1ccc(-c2cccc([N+](=O)[O-])c2)o1	inactive
O=C(Nc1nc2ccc(F)cc2s1)c1ccccn1	inactive
CC(=O)[C@]1(O)Cc2c(O)c3c(c(O)c2[C@@H](O[C@H]2C[C@H](N)[C@H](O)[C@H](C)O2)C1)C(=O)c1ccccc1C3=O	inactive
Cc1[nH][nH]c(=O)c1C(c1ccc(-c2ccc(Cl)c(Cl)c2)o1)c1c(C)[nH][nH]c1=O	inactive
COc1ccc(NC(=O)/C(C#N)=C/c2ncc([N+](=O)[O-])n2C)c(OC)c1	inactive
O=C1C=CC(=O)N1c1ccc(OC(F)F)cc1	inactive

SMILES	GFP fluorescence, higher = induction
N#C/C(=C\c1cc(Br)ccc1F)C(=O)NC1CC1	inactive
O=C1c2cccc3c([N+](=O)[O-])ccc(c23)C(=O)N1c1ccccn1	inactive
Cc1nn2c(NCc3ccccn3)c3c(nc2c1-c1ccccc1)CCC3	inactive
Cc1cccc(NC(c2ccc(C)s2)c2ccc3ccc(C)nc3c2O)n1 (centres undefined)	inactive
O=C1N(c2ccccc2C(F)(F)F)OC1(Cc1ccccc1)c1ccccc1 (centres undefined)	inactive
COc1cc(NC(=O)c2ccccc2[N+](=O)[O-])ccc1NC(=O)c1cc2ccccc2o1	inactive
O=S(=O)(/N=C(/Sc1ccccc1)c1ccccc1)c1ccccc1	inactive
CC(C)(C)c1cc(C(c2cccnc2)N2CCN(CCO)CC2)cc(C(C)(C)C)c1O (centres undefined)	inactive
O=C(C#Cc1ccccc1)c1cccc([N+](=O)[O-])c1	inactive
COc1ccc(C(c2c(C)[nH]n(C(N)=S)c2=O)C(C#N)C#N)cc1 (centres undefined)	inactive
COc1cc(/C=C2\C(=O)ON=C2c2ccccc2)cc(OC)c1OC	inactive
Nc1nc2ncc(CNc3ccc(C(=O)N[C@@H](CCC(=O)O)C(=O)O)cc3)nc2c(=O)[nH]1	inactive
O=S(=O)(CCN(CCS(=O)(=O)C(F)(F)F)CC1CCCO1)C(F)(F)F (centres undefined)	inactive
COc1ccc(NC(=O)/C(Cl)=C(/Cl)S(=O)Cc2ccccc2)cn1 (centres undefined)	inactive
Cc1cc(C(=O)COC(=O)c2ccc[nH]c2=O)c(C)n1-c1ccccc1F	inactive
CCc1ccc(C(=O)/C=C/c2ccc([N+](=O)[O-])o2)cc1	inactive
CC(OC(=O)c1ccco1)C(=O)Nc1nc(-c2ccccc2)cs1 (centres undefined)	inactive
CN(Cc1cnc2nc(N)nc(N)c2n1)c1ccc(C(=O)N[C@@H](CCC(=O)O)C(=O)O)cc1	inactive
Cc1ccc(C)c(/C=C/C(=O)c2ccccc(=O)c2O)c1	inactive
COc1ccc2c(/C=C/c3cc[n+](C)cc3)c[nH]c2c1	inactive
N#Cc1nccnc1S(=O)(=O)c1cccs1	inactive
Cc1ccc(S(=O)(=O)/N=C(\Sc2ccccc2)c2ccccc2)cc1	inactive
COc1cc(C=C2C(=O)c3ccccc3C2=O)cc(OC)c1	inactive

Same assay, conditions: S. cerevisiae CIT2-GFP strain, flow cytometry fluorescence, 3 h

SMILES	EC50
N/C(Cc1ccc(Cl)cc1)=N\OC(=O)c1ccccc1	3.35 µM
N/C(Cc1ccc(Cl)cc1Cl)=N\OC(=O)c1cccs1	1.48 µM
